# Experimental data reported in patent US20260356856A1, “KRAS G12S AND G12C INHIBITORS” (MIRATI THERAPEUTICS, INC., priority 2023, published 2026).
# Assays:
# KRas G12C = molecular target: T1, KRas G12C (Homo sapiens, UniProt P01116, G12C); assay: KRas binding assay, TR-FRET displacement of Cy5 labelled tracer; details: 60-minute incubation at room temperature, 1% DMSO, pH 7.5
# T1 construct: Biotinylated KRas (corresponding to amino acids 1-169, produced at Accelegan Inc.); biotin (biotinylated); purchased Accelegan Inc
# T1 sequence (P01116 1-169 isoform P01116-2 G12C): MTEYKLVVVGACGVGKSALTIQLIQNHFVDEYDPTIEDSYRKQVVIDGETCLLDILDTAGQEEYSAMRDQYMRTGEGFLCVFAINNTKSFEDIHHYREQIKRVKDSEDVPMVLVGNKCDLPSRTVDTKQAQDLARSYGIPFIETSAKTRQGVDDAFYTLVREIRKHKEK
# In short: (§1)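 Displacement measured on KRas residues 1-169 (biotinylated, terbium-streptavidin labelled); 1 h, RT; 1% DMSO final; HEPES pH 7.5 / MgCl2 / Tween-20 / DTT. IC50: 4-parameter fit.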
# KRas G12S = molecular target: T2, KRas G12S (Homo sapiens, UniProt P01116, G12S); assay: as above; details: 60-minute incubation at room temperature, 1% DMSO, pH 7.5
# T2 construct: Biotinylated KRas (corresponding to amino acids 1-169, produced at Accelegan Inc.); biotin (biotinylated); purchased Accelegan Inc
# T2 sequence (P01116 1-169 isoform P01116-2 G12S): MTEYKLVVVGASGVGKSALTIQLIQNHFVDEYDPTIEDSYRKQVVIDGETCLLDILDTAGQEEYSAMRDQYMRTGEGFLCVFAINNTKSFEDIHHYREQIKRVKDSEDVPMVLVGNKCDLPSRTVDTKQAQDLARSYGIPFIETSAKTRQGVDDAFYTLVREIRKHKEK
# In short: as §1
# KRas WT = molecular target: T3, KRas WT (Homo sapiens, UniProt P01116); assay: as above; details: 60-minute incubation at room temperature, 1% DMSO, pH 7.5
# T3 construct: Biotinylated KRas (corresponding to amino acids 1-169, produced at Accelegan Inc.); biotin (biotinylated); purchased Accelegan Inc
# T3 sequence (P01116 1-169 isoform P01116-2): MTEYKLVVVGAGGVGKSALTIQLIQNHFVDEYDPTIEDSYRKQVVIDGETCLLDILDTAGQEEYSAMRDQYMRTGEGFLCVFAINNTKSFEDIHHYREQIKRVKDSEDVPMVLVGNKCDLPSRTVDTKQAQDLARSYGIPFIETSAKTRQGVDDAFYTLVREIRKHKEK
# In short: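 KRas aa 1-169, biotinylated; Tb-streptavidin donor; 1% DMSO final. Buffer: HEPES 50 mM (pH 7.5), MgCl2 5 mM, DTT 1 mM, Tween-20 0.005%. 60 min, RT. IC50 from 4-parameter fit of POC.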
# [1] = molecular target: T4, KRas-mediated phosphorylation of ERK in MKN1 cells (Homo sapiens, UniProt P01116); assay: Inhibition of KRas-mediated phosphorylation of ERK (HTRF), MKN1 cells; format: cell-based; details: MKN1 cells (KRas WT); HTRF pERK; 3 h incubation
# T4 construct: pERK HTRF read-out
# T4 sequence (P01116 1-188 isoform P01116-2): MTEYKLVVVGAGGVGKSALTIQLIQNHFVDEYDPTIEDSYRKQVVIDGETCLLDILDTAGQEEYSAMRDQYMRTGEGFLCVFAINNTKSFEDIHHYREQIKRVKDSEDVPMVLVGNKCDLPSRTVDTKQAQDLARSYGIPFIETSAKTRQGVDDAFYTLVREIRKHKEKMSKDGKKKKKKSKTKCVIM
# Experimental: Inhibition of KRas Phosphorylation of ERK (HTRF) by Exemplary Compounds of Formula (Ia) or (Ib)
# Cisbio HTRF Advanced pERK Assay Catalog #64AERPEH • Cells: MKN1, PSN1 • Procedure: • 1. Day 1: Seed 6,000 cells/well −25 μl/well in 384-well white solid bottom plate; RPM1_10% FBS. Incubate overnight at 37 °C/5% CO2. • 2.
# [2] = molecular target: T5, KRas-mediated phosphorylation of ERK in A549 cells (Homo sapiens, UniProt P01116, G12S); assay: Inhibition of KRas-mediated phosphorylation of ERK (HTRF), A549 cells; format: cell-based; details: HTRF pERK, 3 h incubation
# T5 construct: pERK HTRF read-out
# T5 sequence (P01116 1-188 isoform P01116-2 G12S): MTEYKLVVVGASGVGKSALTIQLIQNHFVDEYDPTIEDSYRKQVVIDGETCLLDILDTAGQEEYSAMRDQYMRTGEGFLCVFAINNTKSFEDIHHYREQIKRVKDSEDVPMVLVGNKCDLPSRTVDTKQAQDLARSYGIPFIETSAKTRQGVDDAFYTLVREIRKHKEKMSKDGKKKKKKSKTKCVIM
# [3] = molecular target: T6, KRas-mediated phosphorylation of ERK in H358 cells (Homo sapiens, UniProt P01116, G12C); assay: Inhibition of KRas-mediated phosphorylation of ERK (HTRF), H358 cells; format: cell-based; details: HTRF pERK, 3 h incubation
# T6 construct: pERK HTRF read-out
# T6 sequence (P01116 1-188 isoform P01116-2 G12C): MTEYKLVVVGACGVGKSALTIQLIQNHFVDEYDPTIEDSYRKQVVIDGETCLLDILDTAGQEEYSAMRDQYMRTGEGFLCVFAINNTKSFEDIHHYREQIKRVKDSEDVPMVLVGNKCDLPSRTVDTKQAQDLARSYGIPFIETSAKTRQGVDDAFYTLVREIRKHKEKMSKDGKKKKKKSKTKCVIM
SMILES,IC50 (KRas G12C) [nM],IC50 (KRas G12S) [nM],IC50 (KRas WT) [nM],IC50 [1] [nM],IC50 [2] [nM],IC50 [3] [nM]
"CN(C(=O)C1CCN(c2nc(OC[C@@]34CCCN3C[C@H](F)C4)nc3c(F)c(-c4ccc(F)c5sc(N)c(C#N)c45)c(Cl)cc23)CC1)c1ccncn1 [Example 290, 1-(7-(2-amino-3-cyano-7-fluorobenzo[b]thiophen-4-yl)-6-chloro-8-fluoro-2-(((2R,7aS)-2-fluorotetrahydro-1H-pyrrolizin-7a(5H)-yl)methoxy)quinazolin-4-yl)-N-methyl-N-(pyrimidin-4-yl)piperidine-4-carboxamide]",9,13,10,18,142,29
"C=Cc1ccn(C(=O)C2CCN(c3nc(OC[C@@]45CCCN4C[C@H](F)C5)nc4c(F)c(-c5cc(O)cc6ccc(F)c(CC)c56)ncc34)CC2)n1 [Example 66, (1-(7-(8-ethyl-7-fluoro-3-hydroxynaphthalen-1-yl)-8-fluoro-2-(((2R,7aS)-2-fluorotetrahydro-1H-pyrrolizin-7a(5H)-yl)methoxy)pyrido[4,3-d]pyrimidin-4-yl)piperidin-4-yl)(3-vinyl-1H-pyrazol-1-yl)methanone]",57,26,154,5200,141,9020
"Cc1ccn(C(=O)C2CCCN(c3nc(OC[C@@]45CCCN4C[C@H](F)C5)nc4c(F)c(-c5c(I)ccc(N)c5C#N)c(Cl)cc34)CC2)n1 (stereo partly drawn) [Example 263, 6-amino-2-(6-chloro-8-fluoro-2-(((2R,7aS)-2-fluorotetrahydro-1H-pyrrolizin-7a(5H)-yl)methoxy)-4-(4-(3-methyl-1H-pyrazole-1-carbonyl)azepan-1-yl)quinazolin-7-yl)-3-iodobenzonitrile]",1720,490,2130,8920,495,> 10000
"CN(CCCC(=O)N(C)c1ccncc1)c1nc(OC[C@@]23CCCN2C[C@H](F)C3)nc2c(F)c(-c3ccc(F)c4sc(N)c(C#N)c34)c(Cl)cc12 [Example 267, 4-((7-(2-amino-3-cyano-7-fluorobenzo[b]thiophen-4-yl)-6-chloro-8-fluoro-2-(((2R,7aS)-2-fluorotetrahydro-1H-pyrrolizin-7a(5H)-yl)methoxy)quinazolin-4-yl)(methyl)amino)-N-methyl-N-(pyridin-4-yl) butanamide]",5,8,9,354,653,230
"CCc1c(F)ccc2cc(O)cc(-c3ncc4c(N5CC[C@@H](C(=O)n6ccc(C)n6)[C@@H](C)C5)nc(OC[C@@]56CCCN5C[C@H](F)C6)nc4c3F)c12 [Example 79, ((3R,4R)-1-(7-(8-ethyl-7-fluoro-3-hydroxynaphthalen-1-yl)-8-fluoro-2-(((2R,7aS)-2-fluorotetrahydro-1H-pyrrolizin-7a(5H)-yl)methoxy)pyrido[4,3-d]pyrimidin-4-yl)-3-methylpiperidin-4-yl)(3-methyl-1H-pyrazol-1-yl)methanone]",26,594,246,1450,785,23
"CCc1c(F)ccc2cc(O)cc(-c3ncc4c(N5CCC(C(=O)N(C)C(=O)C(C)(C)C)CC5)nc(OC[C@@]56CCCN5C[C@H](F)C6)nc4c3F)c12 [Example 224, 1-(7-(8-ethyl-7-fluoro-3-hydroxynaphthalen-1-yl)-8-fluoro-2-(((2R,7aS)-2-fluorotetrahydro-1H-pyrrolizin-7a(5H)-yl)methoxy)pyrido[4,3-d]pyrimidin-4-yl)-N-methyl-N-pivaloylpiperidine-4-carboxamide]",526,257,177,321,3770,1330
"CN(C(=O)CCCN(C)c1nc(OC[C@@]23CCCN2C[C@H](F)C3)nc2c(F)c(-c3ccc(F)c4sc(N)c(C#N)c34)c(Cl)cc12)C(=O)c1ccn(C)n1 [Example 292, N-(4-((7-(2-amino-3-cyano-7-fluorobenzo[b]thiophen-4-yl)-6-chloro-8-fluoro-2-(((2R,7aS)-2-fluorotetrahydro-1H-pyrrolizin-7a(5H)-yl)methoxy)quinazolin-4-yl)(methyl)amino)butanoyl)-N, 1-dimethyl-1H-pyrazole-3-carboxamide]",3,5,11,80,27,30
"N#Cc1c(N)sc2c(F)ccc(-c3c(Cl)cc4c(N5CCC(C(=O)Oc6ccccc6)CC5)nc(OC[C@@]56CCCN5C[C@H](F)C6)nc4c3F)c12 [Example 287, phenyl 1-(7-(2-amino-3-cyano-7-fluorobenzo[b]thiophen-4-yl)-6-chloro-8-fluoro-2-(((2R,7aS)-2-fluorotetrahydro-1H-pyrrolizin-7a(5H)-yl)methoxy)quinazolin-4-yl)piperidine-4-carboxylate]",6,16,170,360,104,13
"Cc1ccn(C(=O)[C@H]2CCCN(c3nc(OC[C@@]45CCCN4C[C@H](F)C5)nc4c(F)c(-c5ccc(F)c6sc(N)c(C#N)c56)c(Cl)cc34)CC2)n1 (atropisomer, axis not shown; (aS)) [Example 170, 2-amino-4-((S)-6-chloro-8-fluoro-2-(((2R,7aS)-2-fluorotetrahydro-1H-pyrrolizin-7a(5H)-yl)methoxy)-4-((S)-4-(3-methyl-1H-pyrazole-1-carbonyl)azepan-1-yl)quinazolin-7-yl)-7-fluorobenzo[b]thiophene-3-carbonitrile]",2,2,9,53,2,3
"CCc1c(F)ccc2cc(O)cc(-c3ncc4c(N5CCC(C(=O)N(C)C(=O)COC)CC5)nc(OC[C@@]56CCCN5C[C@H](F)C6)nc4c3F)c12 [Example 209, 1-(7-(8-ethyl-7-fluoro-3-hydroxynaphthalen-1-yl)-8-fluoro-2-(((2R,7aS)-2-fluorotetrahydro-1H-pyrrolizin-7a(5H)-yl)methoxy)pyrido[4,3-d]pyrimidin-4-yl)-N-(2-methoxyacetyl)-N-methylpiperidine-4-carboxamide]",168,165,496,1110,281,1460
"N#Cc1c(N)sc2c(F)ccc(-c3c(Cl)cc4c(N5CCC(C(=O)Oc6ccc(F)cc6)CC5)nc(OC[C@@]56CCCN5C[C@H](F)C6)nc4c3F)c12 [Example 299, 4-fluorophenyl 1-(7-(2-amino-3-cyano-7-fluorobenzo[b]thiophen-4-yl)-6-chloro-8-fluoro-2-(((2R,7aS)-2-fluorotetrahydro-1H-pyrrolizin-7a(5H)-yl)methoxy)quinazolin-4-yl)piperidine-4-carboxylate]",9,22,178,323,93,12
"CN(CCCC(=O)Oc1cccc(F)c1)c1nc(OC[C@@]23CCCN2C[C@H](F)C3)nc2c(F)c(-c3ccc(F)c4sc(N)c(C#N)c34)c(Cl)cc12 [Example 198, 3-fluorophenyl 4-((7-(2-amino-3-cyano-7-fluorobenzo[b]thiophen-4-yl)-6-chloro-8-fluoro-2-(((2R,7aS)-2-fluorotetrahydro-1H-pyrrolizin-7a(5H)-yl)methoxy)quinazolin-4-yl)(methyl)amino)butanoate]",2,14,77,159,489,28
"CN(CCCC(=O)Nc1ccccn1)c1nc(OC[C@@]23CCCN2C[C@H](F)C3)nc2c(F)c(-c3ccc(F)c4sc(N)c(C#N)c34)c(Cl)cc12 [Example 214, 4-((7-(2-amino-3-cyano-7-fluorobenzo[b]thiophen-4-yl)-6-chloro-8-fluoro-2-(((2R,7aS)-2-fluorotetrahydro-1H-pyrrolizin-7a(5H)-yl)methoxy)quinazolin-4-yl)(methyl)amino)-N-(pyridin-2-yl)butanamide]",8,13,14,120,661,93
"CCc1c(F)ccc2cc(O)cc(-c3ncc4c(N5CCCC(C(=O)N(C)C(C)=O)CC5)nc(OC[C@@]56CCCN5C[C@H](F)C6)nc4c3F)c12 (stereo partly drawn) [Example 285, N-acetyl-1-(7-(8-ethyl-7-fluoro-3-hydroxynaphthalen-1-yl)-8-fluoro-2-(((2R,7aS)-2-fluorotetrahydro-1H-pyrrolizin-7a(5H)-yl)methoxy)pyrido[4,3-d]pyrimidin-4-yl)-N-methylazepane-4-carboxamide]",882,175,492,2420,151,4290
